In PubChem BioAssay AID1918947 (Molecular Pharmacology Branch, DTP, NCI, 2023):

Tested on: A498 complex spheroid viability
Assay: Anticancer human tumor A498 cell line growth inhibition;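 note: spheroids exposed to agents for seven days before readout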;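 for viability, T/C: 100% = DMSO vehicle-treated spheroids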
Settings: for IC50: curve of first compound; for viability, T/C: stronger effect = lower value
Procedure, shortened: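 Complex spheroids of tumor cells with HUVEC and human MSCs, exposed to iadademstat combined with other agents. Each agent tested in half-log steps from near clinical Cmax (else 10 microM top), DMSO ≤0.25%.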

[1] = second compound 0.1 µM, first compound 0.00316 µM
[2] = second compound 0.1 µM, first compound 0.01 µM
[3] = second compound 0.1 µM, first compound 0.0316 µM
[4] = second compound 0.1 µM, first compound 0.1 µM
[5] = second compound 0.316 µM, first compound 0.00316 µM
[6] = second compound 0.316 µM, first compound 0.01 µM
[7] = second compound 0.316 µM, first compound 0.0316 µM
[8] = second compound 0.316 µM, first compound 0.1 µM
[9] = second compound 1 µM, first compound 0.00316 µM
[10] = second compound 1 µM, first compound 0.01 µM
[11] = second compound 1 µM, first compound 0.0316 µM
[12] = second compound 1 µM, first compound 0.1 µM
[13] = second compound 3.16 µM, first compound 0.00316 µM
[14] = second compound 3.16 µM, first compound 0.01 µM
[15] = second compound 3.16 µM, first compound 0.0316 µM
[16] = second compound 3.16 µM, first compound 0.1 µM
[17] = second compound 10 µM, first compound 0.00316 µM
[18] = second compound 10 µM, first compound 0.01 µM
[19] = second compound 10 µM, first compound 0.0316 µM
[20] = second compound 10 µM, first compound 0.1 µM
[21] = second compound 0.1 µM, first compound 0.316 µM
[22] = second compound 0.1 µM, first compound 1 µM
[23] = second compound 0.316 µM, first compound 0.316 µM
[24] = second compound 0.316 µM, first compound 1 µM
[25] = second compound 1 µM, first compound 0.316 µM
[26] = second compound 1 µM, first compound 1 µM
[27] = second compound 3.16 µM, first compound 0.316 µM
[28] = second compound 3.16 µM, first compound 1 µM
[29] = second compound 10 µM, first compound 0.316 µM
[30] = second compound 10 µM, first compound 1 µM

In the case of `CC[C@@]1(O)C(=O)OCc2c1cc1n(c2=O)Cc2cc3c(CN(C)C)c(O)ccc3nc2-1` + NC1CCC(NC2CC2c2ccccc2)CC1, the IC50 (second compound 0.1 µM) is reported as 0.0396 µM, the IC50 (second compound 0.316 µM) is reported as 0.0473 µM and the IC50 (second compound 1 µM) is reported as 0.0384 µM. The IC50 (second compound 3.16 µM) was 0.0363 µM, the IC50 (second compound 10 µM) was 0.0293 µM and the viability, T/C (second compound 0.1 µM, first compound 0.000316 µM) was 82.3%. For the same molecule, the viability, T/C (second compound 0.1 µM, first compound 0.001 µM) was 82.9%, the viability, T/C [1] was 71.7% and the viability, T/C [2] was 61.2%. The viability, T/C [3] was 57.5%, the viability, T/C [4] was 35.7% and the viability, T/C (second compound 0.316 µM, first compound 0.000316 µM) was 96.6%. The viability, T/C (second compound 0.316 µM, first compound 0.001 µM) was 88.2%, the viability, T/C [5] was 81.8% and the viability, T/C [6] was 68%. It also gave a viability, T/C [7] of 59.1%, a viability, T/C [8] of 37.4% and a viability, T/C (second compound 1 µM, first compound 0.000316 µM) of 85.3%. For the same molecule, the viability, T/C (second compound 1 µM, first compound 0.001 µM) was 82.3%, the viability, T/C [9] was 78.8% and the viability, T/C [10] was 62.8%. The viability, T/C [11] was 56.6%, the viability, T/C [12] was 32.2% and the viability, T/C (second compound 3.16 µM, first compound 0.000316 µM) was 78.7%. It also gave a viability, T/C (second compound 3.16 µM, first compound 0.001 µM) of 81.5%, a viability, T/C [13] of 73.1% and a viability, T/C [14] of 64.8%. It also gave a viability, T/C [15] of 53.7%, a viability, T/C [16] of 30.6% and a viability, T/C (second compound 10 µM, first compound 0.000316 µM) of 76.9%. The viability, T/C (second compound 10 µM, first compound 0.001 µM) was 79%, the viability, T/C [17] was 69.8% and the viability, T/C [18] was 61.9%. It also gave a viability, T/C [19] of 50.1% and a viability, T/C [20] of 28%.
`Nc1ncn(C2CC(O)C(CO)O2)c(=O)n1` (stereo not given) + NC1CC1c1ccc(-c2cccc(O)c2)cc1 gave an IC50 (second compound 0.1 µM) greater than 1 µM, an IC50 (second compound 0.316 µM) greater than 1 µM and an IC50 (second compound 1 µM) greater than 1 µM. For the same molecule, the IC50 (second compound 3.16 µM) was greater than 1 µM, the IC50 (second compound 10 µM) was greater than 1 µM and the viability, T/C [1] was 110%. The viability, T/C [2] was 113%, the viability, T/C [3] was 104% and the viability, T/C [4] was 94.5%. For the same molecule, the viability, T/C [21] was 92.3%, the viability, T/C [22] was 78.6% and the viability, T/C [5] was 118%. For the same molecule, the viability, T/C [6] was 120%, the viability, T/C [7] was 107% and the viability, T/C [8] was 97.1%. For the same molecule, the viability, T/C [23] was 93.1%, the viability, T/C [24] was 68.5% and the viability, T/C [9] was 113%. The viability, T/C [10] was 114%, the viability, T/C [11] was 110% and the viability, T/C [12] was 95.7%. It also gave a viability, T/C [25] of 86.1%, a viability, T/C [26] of 67.3% and a viability, T/C [13] of 112%. For the same molecule, the viability, T/C [14] was 114%, the viability, T/C [15] was 110% and the viability, T/C [16] was 95.4%. For the same molecule, the viability, T/C [27] was 75.6%, the viability, T/C [28] was 63.2% and the viability, T/C [17] was 107%. It also gave a viability, T/C [18] of 100%, a viability, T/C [19] of 105% and a viability, T/C [20] of 101%. The viability, T/C [29] was 80.2% and the viability, T/C [30] was 60.4%.
Molecule `COc1cc(Nc2ncc3c(n2)-c2ccc(Cl)cc2C(c2c(F)cccc2OC)=NC3)ccc1C(=O)O` + NC1CC1c1ccc(-c2cccc(O)c2)cc1 has an IC50 (second compound 0.1 µM) of 0.185 µM, an IC50 (second compound 0.316 µM) of 0.282 µM and an IC50 (second compound 1 µM) of 0.0806 µM. It also gave an IC50 (second compound 3.16 µM) of 0.0346 µM, an IC50 (second compound 10 µM) of 0.0654 µM and a viability, T/C [1] of 76.7%. The viability, T/C [2] was 65.5%, the viability, T/C [3] was 58.5% and the viability, T/C [4] was 54%. The viability, T/C [21] was 49.4%, the viability, T/C [22] was 41% and the viability, T/C [5] was 85.2%. It also gave a viability, T/C [6] of 72.3%, a viability, T/C [7] of 66.9% and a viability, T/C [8] of 56%. For the same molecule, the viability, T/C [23] was 52.1%, the viability, T/C [24] was 39.9% and the viability, T/C [9] was 78.7%. The viability, T/C [10] was 60.7%, the viability, T/C [11] was 58% and the viability, T/C [12] was 48.2%. It also gave a viability, T/C [25] of 44.8%, a viability, T/C [26] of 34.6% and a viability, T/C [13] of 71.1%. For the same molecule, the viability, T/C [14] was 53.8%, the viability, T/C [15] was 52.6% and the viability, T/C [16] was 46.4%. The viability, T/C [27] was 42.2%, the viability, T/C [28] was 36.9% and the viability, T/C [17] was 76.6%. The viability, T/C [18] was 59.3%, the viability, T/C [19] was 54.1% and the viability, T/C [20] was 50.8%. It also gave a viability, T/C [29] of 40.1% and a viability, T/C [30] of 31.6%.
